Laboratory results: PubChem BioAssay (NCI)
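A five-concentration, 48-hour dose response in 96-well plates underlies each endpoint, interpolated linearly between surrounding concentrations. At the TGI there is no net growth.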

Assays:
Assay in all cases: DTP human tumour cell line panel, 48 h
TK-10 renal = system: TK-10 renal
K-562 leukemia = system: K-562 leukemia
HOP-62 NSCLC = system: HOP-62 NSCLC
OVCAR-5 ovarian = system: OVCAR-5 ovarian
UO-31 renal = system: UO-31 renal
MDA-MB-231 breast = system: MDA-MB-231 breast
CCRF-CEM leukemia = system: CCRF-CEM leukemia
SF-268 CNS = system: SF-268 CNS
HS 578T breast = system: HS 578T breast
UACC-257 melanoma = system: UACC-257 melanoma
NCI-H23 lung = system: NCI-H23 lung
OVCAR-8 ovarian = system: OVCAR-8 ovarian
MDA-N = system: MDA-N
DU-145 prostate = system: DU-145 prostate
UACC-62 melanoma = system: UACC-62 melanoma
IGROV1 ovarian = system: IGROV1 ovarian
SF-539 CNS = system: SF-539 CNS
A498 renal = system: A498 renal
EKVX NSCLC = system: EKVX NSCLC
SNB-75 CNS = system: SNB-75 CNS
SK-MEL-5 melanoma = system: SK-MEL-5 melanoma
HT29 colon = system: HT29 colon
RXF 393 renal = system: RXF 393 renal
NCI/ADR-RES ovarian = system: NCI/ADR-RES ovarian
MOLT-4 leukemia = system: MOLT-4 leukemia
NCI-H226 lung = system: NCI-H226 lung
ACHN renal = system: ACHN renal
SK-MEL-2 melanoma = system: SK-MEL-2 melanoma
SNB-19 CNS = system: SNB-19 CNS
786-0 renal = system: 786-0 renal
HCT-116 colon = system: HCT-116 colon
PC-3 prostate = system: PC-3 prostate
CAKI-1 renal = system: CAKI-1 renal
HL-60(TB) leukemia = system: HL-60(TB) leukemia
T-47D breast = system: T-47D breast
SN12C renal = system: SN12C renal
HCT-15 colon = system: HCT-15 colon
SF-295 CNS = system: SF-295 CNS
RPMI-8226 leukemia = system: RPMI-8226 leukemia
NCI-H460 lung = system: NCI-H460 lung
KM12 colon = system: KM12 colon
MCF7 breast = system: MCF7 breast
OVCAR-3 ovarian = system: OVCAR-3 ovarian
BT-549 breast = system: BT-549 breast
A549 NSCLC = system: A549 NSCLC
M14 melanoma = system: M14 melanoma
COLO 205 colon = system: COLO 205 colon
MALME-3M melanoma = system: MALME-3M melanoma
NCI-H522 lung = system: NCI-H522 lung
SR leukemia = system: SR leukemia
SW-620 colon = system: SW-620 colon
OVCAR-4 ovarian = system: OVCAR-4 ovarian
LOX IMVI melanoma = system: LOX IMVI melanoma
MDA-MB-435 = system: MDA-MB-435
U251 CNS = system: U251 CNS
HOP-92 NSCLC = system: HOP-92 NSCLC
SK-OV-3 ovarian = system: SK-OV-3 ovarian

Cc1ccc(Cl)c2c(=O)c3ccc(N)cc3sc12
TGI (TK-10 renal): > 100 µM
TGI (K-562 leukemia): 48.6 µM
TGI (HOP-62 NSCLC): 52.8 µM
TGI (OVCAR-5 ovarian): > 100 µM
TGI (UO-31 renal): 41.2 µM
TGI (MDA-MB-231 breast): 74.8 µM
TGI (CCRF-CEM leukemia): 50.4 µM
TGI (SF-268 CNS): > 100 µM
TGI (HS 578T breast): 33.6 µM
TGI (UACC-257 melanoma): 90.7 µM
TGI (NCI-H23 lung): 97.4 µM
TGI (OVCAR-8 ovarian): 52.6 µM
TGI (MDA-N): > 100 µM
TGI (DU-145 prostate): > 100 µM
TGI (UACC-62 melanoma): 30.8 µM
TGI (IGROV1 ovarian): 28.7 µM
TGI (SF-539 CNS): 45.1 µM
TGI (A498 renal): 36.8 µM
TGI (EKVX NSCLC): 52.8 µM
TGI (SNB-75 CNS): 37.8 µM
TGI (SK-MEL-5 melanoma): 37.7 µM
TGI (HT29 colon): 38.5 µM
TGI (RXF 393 renal): 59.3 µM
TGI (NCI/ADR-RES ovarian): 35 µM
TGI (MOLT-4 leukemia): 50 µM
TGI (NCI-H226 lung): 48.4 µM
TGI (ACHN renal): 57.5 µM
TGI (SK-MEL-2 melanoma): 44.6 µM
TGI (SNB-19 CNS): > 100 µM
TGI (786-0 renal): > 100 µM
TGI (HCT-116 colon): 35.1 µM
TGI (PC-3 prostate): 76.7 µM
TGI (CAKI-1 renal): > 100 µM
TGI (HL-60(TB) leukemia): 20.4 µM
TGI (T-47D breast): 87.1 µM
TGI (SN12C renal): 32.9 µM
TGI (HCT-15 colon): 54.9 µM
TGI (SF-295 CNS): 31.8 µM
TGI (RPMI-8226 leukemia): 42.3 µM
TGI (NCI-H460 lung): > 100 µM
TGI (KM12 colon): 33.4 µM
TGI (MCF7 breast): 55.4 µM
TGI (OVCAR-3 ovarian): 47.7 µM
TGI (BT-549 breast): > 100 µM
TGI (A549 NSCLC): 85.3 µM
TGI (M14 melanoma): > 100 µM
TGI (COLO 205 colon): 37.5 µM

CC(C)(C)[Si](C)(C)Oc1ccc(C2CNC(=O)C23CCC(=O)N3Cc2ccccc2)cc1 (stereo not drawn)
TGI (TK-10 renal): 51.8 µM
TGI (MALME-3M melanoma): 48.4 µM
TGI (K-562 leukemia): > 100 µM
TGI (HOP-62 NSCLC): 53.3 µM
TGI (OVCAR-5 ovarian): 36.9 µM
TGI (UO-31 renal): 32.9 µM
TGI (NCI-H522 lung): 29.2 µM
TGI (CCRF-CEM leukemia): > 100 µM
TGI (SF-268 CNS): 26 µM
TGI (HS 578T breast): 21.5 µM
TGI (UACC-257 melanoma): 25.7 µM
TGI (NCI-H23 lung): 25.5 µM
TGI (OVCAR-8 ovarian): 28.8 µM
TGI (MDA-N): 27.3 µM
TGI (DU-145 prostate): 38.7 µM
TGI (SR leukemia): > 100 µM
TGI (UACC-62 melanoma): 32 µM
TGI (IGROV1 ovarian): 31.6 µM
TGI (SF-539 CNS): 30.7 µM
TGI (A498 renal): 25.1 µM
TGI (EKVX NSCLC): 22.4 µM
TGI (SW-620 colon): 31.1 µM
TGI (SNB-75 CNS): 32.1 µM
TGI (SK-MEL-5 melanoma): 19.6 µM
TGI (HT29 colon): 24.8 µM
TGI (RXF 393 renal): 23.2 µM
TGI (OVCAR-4 ovarian): 29.1 µM
TGI (NCI/ADR-RES ovarian): 26.7 µM
TGI (MOLT-4 leukemia): > 100 µM
TGI (NCI-H226 lung): 44.8 µM
TGI (ACHN renal): 30.9 µM
TGI (SK-MEL-2 melanoma): 35.5 µM
TGI (SNB-19 CNS): 29.5 µM
TGI (786-0 renal): 45.3 µM
TGI (HCT-116 colon): > 100 µM
TGI (LOX IMVI melanoma): 41.2 µM
TGI (PC-3 prostate): 35.7 µM
TGI (CAKI-1 renal): 45 µM
TGI (HL-60(TB) leukemia): 49.2 µM
TGI (T-47D breast): 63 µM
TGI (SN12C renal): 35.9 µM
TGI (MDA-MB-435): 29.9 µM
TGI (U251 CNS): 36.2 µM
TGI (HCT-15 colon): 30 µM
TGI (SF-295 CNS): 30.6 µM
TGI (HOP-92 NSCLC): 34.6 µM
TGI (RPMI-8226 leukemia): 18.8 µM
TGI (NCI-H460 lung): 20.8 µM
TGI (KM12 colon): > 100 µM
TGI (SK-OV-3 ovarian): 29 µM
TGI (MCF7 breast): 17.6 µM
TGI (OVCAR-3 ovarian): 33 µM
TGI (BT-549 breast): 33.1 µM
TGI (A549 NSCLC): 33.2 µM
TGI (M14 melanoma): 35 µM
TGI (COLO 205 colon): 25.3 µM
